Entries after “also recorded” stand apart in the source; their conditions may differ. Read-outs that look alike come from different tables or passages of the source.
How the values were obtained:
rabbit vein graft = experiment: Rabbit vein graft failure model (vein autograft implanted into carotid artery); assay type: in vivo; settings: graft treated for 30 min, Imatinib 10% w/v; 4 weeks
Excerpt: A rabbit vein autograft is implanted into a carotid artery to prepare a rabbit vein graft failure model. In this model, a lumen stenosis due to neointimal formation develops after 4 weeks.

[1] = system: Human coronary artery arterial vascular SMCs; settings: for inhibition of PDGF-BB induced SMC proliferation, dose dependence: free Imatinib 0.1, 1, 10 μM, PDGF-BB 10 ng/ml
Description: Human coronary artery arterial vascular SMCs (Cambrex Bio Science Walkersville, Inc) are seeded on 48-well culture plates (FALCON 354506 BIOCOAT CELL WARE Human Fibronectin) at 5×10^3 cells per well (n=6 per group) in SM-BM with 10% FBS. After 24 hours, the cells are starved for 72 hours in serum free medium to obtain quiescent non-dividing cells. After starvation, recombinant PDGF-BB (Sigma) 10 ng/m^1 is added. […] These wells are washed with PBS before PDGF stimulation. Four days later, the cells are fixed with methanol and stained with Diff-Quick staining solution (Baxter). A single observer who is blinded the experimental protocol counted the number of cells/plate under a microscope for quantification of SMC proliferation.

Rat aortic SMCs = settings: for inhibition of PDGF-BB induced SMC migration, dose dependence: free Imatinib 0.1, 1, 10 μM, PDGF-BB 10 ng/ml
Description: Migration of rat aortic SMCs is assessed with a Boyden chamber type cell migration assay kit housing a collagen-precoated polycarbonate membrane with 8.0-μm pores (Chemicon), as we previously described (Ono H, Ichiki T, et al. Arterioscler Thromb Vasc Biol. 2004; 24:1634-9.). SMCs are grown to semiconfluent and then made quiescent in serum free medium for 24 hours before migration. The cells (1×10^5 cells/ml) are added to the upper chamber of the membrane (n=6 per group) and allowed to migrate through the pores. […] These cells are washed with PBS before PDGF stimulation. SMCs are then exposed. to PDGF-BB (10 ng/ml) in the lower chamber for 4 hours, after which non-migrated cells are removed from the upper chamber using a cotton swab. The SMCs that migrate to the lower side of the filter are fixed in methanol, stained with Diff-Quick staining solution (Baxter), and counted under a microscope for quantification of SMC migration.

[2] = listed as non-encapsulated Imatinib
[3] = free Imatinib at 0.1 μM, listed as free Imatinib

## Cc1ccc(NC(=O)c2ccc(CN3CCN(C)CC3)cc2)cc1Nc1nccc(-c2cccnc2)n1 [Imatinib, N-{5-[4-(4-methylpiperazino-methyl)-benzoylamido]-2-methylphenyl}-4-(3-pyridyl)-2-pydmidine-amine]
Rabbit vein graft
  neointimal formation of vein graft: No suppression
[1]
  inhibition of PDGF-BB induced SMC proliferation, dose dependence: dose-dependently reduces
[1]; listed as free Imatinib
  inhibition of PDGF-BB induced SMC proliferation, dose dependence: dose-dependent manner
[1]; [2]
  inhibition of PDGF-BB induced SMC proliferation, dose dependence: dose-dependent manner
[1]; free Imatinib at 0.1 μM
  effect on PDGF-induced SMC proliferation: no effect
[1]; [3]
  effect on PDGF-induced SMC proliferation: no effects
[1]; free Imatinib at 10 μM
  effect on PDGF-induced SMC proliferation: normalizes; also recorded: completely abolishes
Rat aortic SMCs
  inhibition of PDGF-BB induced SMC migration, dose dependence: dose-dependent inhibitory effect
Rat aortic SMCs; listed as free Imatinib
  inhibition of PDGF-BB induced SMC migration, dose dependence: dose-dependent manner
Rat aortic SMCs; [2]
  inhibition of PDGF-BB induced SMC migration, dose dependence: dose-dependent manner
Rat aortic SMCs; free Imatinib at 0.1 μM
  effect on PDGF-induced SMC migration: no effect
Rat aortic SMCs; [3]
  effect on PDGF-induced SMC migration: no effects
Rat aortic SMCs; free Imatinib at 10 μM
  effect on PDGF-induced SMC migration: normalizes

From US20090136579A1, “Nanoparticles Comprising a PDGF Receptor Tyrosine Kinase Inhibitor” (priority 2006, published 2009)
